Some results are limits rather than exact numbers.

The first test concerns PDGFR. Briefly: Rat A10 cell proliferation assay. The class given is cell-based. The conditions noted are these: Table 1; Rat A10 cells, recombinant rat PDGF-BB, CellTiter-Glo after 68 hours. The procedure: Compounds of Formula (I) provided herein were assayed to measure their capacity to inhibit c-kit and PDGFR kinases using the appropriate assay described below: c-Kit inhibition was evaluated using the Mo7e cell proliferation assay, and PDGFR inhibition was evaluated using the Rat A10 cell proliferation assay and the Human TG/HA-VSMC cell proliferation assay.
Rat A10 cells (ATCC) were resuspended in DMEM supplemented with 1% FBS and 10 ng/mL recombinant rat PDGF-BB at 20,000 cells/mL. The cells were aliquoted into 384 well plates at 50 μL/well and incubated for 4 hours at 37° C. 0.5 μL of test compound 3-fold serially diluted in DMSO was added to each well. The plates were returned to the incubator for a further 68 hours. 25 μL of CellTiter-Glo (Promega) was added to each well and the plates were incubated on the bench for 15 minutes. Luminescence was then read using a CLIPR CCD camera (Molecular Devices).
For orientation: Cellular ATP, detected with luciferase, serves as a proxy for viable cell number.
One may read the IC50 as the midpoint of a concentration-inhibition curve. As for `Cc1ccc(C(=O)NC(CO)C(C)C)cc1NC(=O)c1cnc2ccccn12` (stereo not drawn) [F3, N-{5-[(1-hydroxy-3-methylbutan-2-yl)carbamoyl]-2-methylphenyl}imidazo[1,2-a]pyridine-3-carboxamide], the IC50 was 175 nM.

As to `Cc1ccc(C(=O)NCc2ccccc2N2CCC(O)C2)cc1NC(=O)c1cnc2ccccn12` (stereo not drawn) [F31, N-[5-({[2-(3-hydroxypyrrolidin-1-yl)phenyl]methyl}carbamoyl)-2-methylphenyl]imidazo[1,2-a]pyridine-3-carboxamide], the IC50 is 42 nM.

As to `Cc1ccc(C(=O)N[C@@H]2c3ccccc3C[C@H]2O)cc1NC(=O)c1cnc2ccccn12` [F22, N-(5-{[(1R,2R)-2-hydroxy-2,3-dihydro-1H-inden-1-yl]carbamoyl}-2-methylphenyl)imidazo[1,2-a]pyridine-3-carboxamide], the IC50 came to 28 nM.

For the compound `O=C(N[C@@H]1c2ccccc2C[C@@H]1O)c1ccc(F)c(NC(=O)c2cnc3ccc(F)cn23)c1` [F27, 6-fluoro-N-(2-fluoro-5-{[(1R,2S)-2-hydroxy-2,3-dihydro-1H-inden-1-yl]carbamoyl}phenyl)imidazo[1,2-a]pyridine-3-carboxamide], the IC50 is 168 nM.

In the case of `Cc1ccc2ncc(C(=O)Nc3cc(C(=O)N[C@@H]4c5ccc(F)cc5C[C@@H]4O)ccc3F)n2c1` [F28, N-(2-fluoro-5-{[(1R,2S)-5-fluoro-2-hydroxy-2,3-dihydro-1H-inden-1-yl]carbamoyl}phenyl)-6-methylimidazo[1,2-a]pyridine-3-carboxamide], the IC50 amounted to 129 nM.

Turning to `O=C(N[C@@H]1c2ccccc2C[C@H]1O)c1ccc(F)c(NC(=O)c2cnc3ccccn23)c1` [F7, N-(2-fluoro-5-{[(1R,2R)-2-hydroxy-2,3-dihydro-1H-inden-1-yl]carbamoyl}phenyl)imidazo[1,2-a]pyridine-3-carboxamide], the IC50 was found to be 138 nM.

Turning to `Cc1ccc2ncc(C(=O)Nc3cc(C(=O)N[C@@H]4c5cc(F)ccc5C[C@@H]4O)ccc3F)n2c1` [F29, N-(2-fluoro-5-{[(1R,2S)-6-fluoro-2-hydroxy-2,3-dihydro-1H-inden-1-yl]carbamoyl}phenyl)-6-methylimidazo[1,2-a]pyridine-3-carboxamide], the IC50 turned out to be 105 nM.

Turning to `Cc1ccc2ncc(C(=O)Nc3cc(C(=O)N[C@H]4CCCC[C@@H]4O)ccc3F)n2c1` [F114, N-(2-fluoro-5-{[(1S,2S)-2-hydroxycyclohexyl]carbamoyl}phenyl)-6-methylimidazo[1,2-a]pyridine-3-carboxamide], the IC50 came out at 70 nM.

With `O=C(N[C@@H](CO)[C@@H](O)c1ccccc1)c1ccc(F)c(NC(=O)c2cnc3ccccn23)c1` [F123, N-(5-{[(1S,2S)-1,3-dihydroxy-1-phenylpropan-2-yl]carbamoyl}-2-fluorophenyl)imidazo[1,2-a]pyridine-3-carboxamide], the IC50 was found to be 44 nM.

The test is the same for the next values; noted with them: Table 2; Rat A10 cells, recombinant rat PDGF-BB, CellTiter-Glo after 68 hours.
On to `O=C(N[C@@H]1c2cc(Cl)ccc2C[C@@H]1O)c1ccc(F)c(NC(=O)c2cnc3ccc(F)cn23)c1` (stereo in doubt) [F42, N-(5-{[(1R,2S)-6-chloro-2-hydroxy-2,3-dihydro-1H-inden-1-yl]carbamoyl}-2-fluorophenyl)-6-fluoroimidazo[1,2-a]pyridine-3-carboxamide], for which the IC50 was 277 nM.

Take `O=C(NCC1(O)CCCC1)c1cccc(NC(=O)c2cnc3ccccn23)c1` [F69]: the IC50 was determined as 1850 nM.

For the compound `C[C@@]1(O)CCCC[C@H]1NC(=O)c1ccc(F)c(NC(=O)c2cnc3ccccn23)c1` [F103, N-(2-fluoro-5-{[(1R,2R)-2-hydroxy-2-methylcyclohexyl]carbamoyl}phenyl)imidazo[1,2-a]pyridine-3-carboxamide], the IC50 is more than 10000 nM.

On to `O=C(N[C@H]1CCCC1O)c1ccc(F)c(NC(=O)c2cnc3ccccn23)c1` (stereo in doubt) [F62, N-(2-fluoro-5-{[(1S,2S)-2-hydroxycyclopentyl]carbamoyl}phenyl)imidazo[1,2-a]pyridine-3-carboxamide], for which the IC50 worked out at 684 nM.

For the compound `O=C(N[C@@H](CO)c1ccccc1)c1ccc(F)c(NC(=O)c2cnc3ccccn23)c1` [F86, N-(2-fluoro-5-{[(1R)-2-hydroxy-1-phenylethyl]carbamoyl}phenyl)imidazo[1,2-a]pyridine-3-carboxamide], the IC50 is 1510 nM.

Consider `O=C(N[C@@H]1c2ccccc2C[C@@H]1O)c1ccc(F)c(NC(=O)c2cnc3ccc(C(F)(F)F)cn23)c1` (stereo in doubt) [F58, N-(2-fluoro-5-{[(1R,2S)-2-hydroxy-2,3-dihydro-1H-inden-1-yl]carbamoyl}phenyl)-6-(trifluoromethyl)imidazo[1,2-a]pyridine-3-carboxamide], for which the IC50 amounted to 584 nM.

For `Cc1ccc2ncc(C(=O)Nc3cc(C(=O)N[C@@H]4c5cc(F)ccc5C[C@@H]4O)c(C)cc3F)n2c1` [F89, N-(2-fluoro-5-{[(1R,2S)-6-fluoro-2-hydroxy-2,3-dihydro-1H-inden-1-yl]carbamoyl}-4-methylphenyl)-6-methylimidazo[1,2-a]pyridine-3-carboxamide], the half-maximal inhibitory concentration (IC50) was 1810 nM.

Consider `Cc1ccc2ncc(C(=O)Nc3cc(C(=O)N[C@@H]4c5ccccc5C[C@@H]4O)c(Cl)cc3F)n2c1` [F85, N-(4-chloro-2-fluoro-5-{[(1R,2S)-2-hydroxy-2,3-dihydro-1H-inden-1-yl]carbamoyl}phenyl)-6-methylimidazo[1,2-a]pyridine-3-carboxamide], for which the IC50 is 4020 nM.

As to `O=C(N[C@@H]1c2ccccc2C[C@@H]1O)c1ccc(F)c(NC(=O)c2cnc3ccc(COCC(F)(F)F)cn23)c1` (stereo in doubt) [F61, N-(2-fluoro-5-{[(1R,2S)-2-hydroxy-2,3-dihydro-1H-inden-1-yl]carbamoyl}phenyl)-6-[(2,2,2-trifluoroethoxy)methyl]imidazo[1,2-a]pyridine-3-carboxamide], the IC50 is 618 nM.

For the compound `O=C(NC1(CO)CCCC1)c1cccc(NC(=O)c2cnc3ccccn23)c1` [F77, N-(3-{[1-(hydroxymethyl)cyclopentyl]carbamoyl}phenyl)imidazo[1,2-a]pyridine-3-carboxamide], the IC50 turned out to be 9450 nM.

As to `O=C(N[C@H]1c2ccccc2C[C@H]1O)c1cccc(NC(=O)c2cnc3ccccn23)c1` [F68, N-(3-{[(1S,2R)-2-hydroxy-2,3-dihydro-1H-inden-1-yl]carbamoyl}phenyl)imidazo[1,2-a]pyridine-3-carboxamide], the IC50 amounted to 1520 nM.

With `O=C(N[C@@H]1c2ccccc2C[C@@H]1O)c1ccc(F)c(NC(=O)c2cnc3ccc(N4CCOCC4)cn23)c1` (stereo in doubt) [F54, N-(2-fluoro-5-{[(1R,2S)-2-hydroxy-2,3-dihydro-1H-inden-1-yl]carbamoyl}phenyl)-6-(morpholin-4-yl)imidazo[1,2-a]pyridine-3-carboxamide], the 50% inhibitory concentration (IC50) is 477 nM.

`O=C(N[C@@H]1c2ccccc2C[C@@H]1O)c1cccc(NC(=O)c2cnc3ccccn23)c1` (stereo in doubt) [F47, N-(3-{[(1R,2S)-2-hydroxy-2,3-dihydro-1H-inden-1-yl]carbamoyl}phenyl)imidazo[1,2-a]pyridine-3-carboxamide]: the IC50 came out at 356 nM.

`O=C(N[C@H]1CCCC[C@H]1CO)c1ccc(F)c(NC(=O)c2cnc3ccccn23)c1` [F59]: the IC50 is 603 nM.

On to `O=C(N[C@H]1c2ccccc2C[C@H]1O)c1ccc(F)c(NC(=O)c2cnc3ccc(-n4ccnc4)cn23)c1` [F81, N-(2-fluoro-5-{[(1S,2R)-2-hydroxy-2,3-dihydro-1H-inden-1-yl]carbamoyl}phenyl)-6-(1H-imidazol-1-yl)imidazo[1,2-a]pyridine-3-carboxamide], for which the IC50 was more than 10000 nM.

In the case of `[2H]c1c([2H])c([2H])n2c(C(=O)Nc3cc(C(=O)N[C@H]4c5ccccc5C[C@H]4O)ccc3F)cnc2c1[2H]` [F55, N-(2-fluoro-5-{[(1S,2R)-2-hydroxy-2,3-dihydro-1H-inden-1-yl]carbamoyl}phenyl)-5,6,7,8-tetrahydrogenioimidazo[1,2-a]pyridine-3-carboxamide], the IC50 stood at 484 nM.

Turning to `CC[C@@H](CO)NC(=O)c1cccc(NC(=O)c2cnc3ccccn23)c1` [F79, N-(3-{[(2S)-1-hydroxybutan-2-yl]carbamoyl}phenyl)imidazo[1,2-a]pyridine-3-carboxamide], the IC50 was more than 10000 nM.

Take `O=C(NC1Cc2ccccc2C1O)c1ccc(F)c(NC(=O)c2cnc3ccccn23)c1` (stereo not drawn) [F53, N-{2-fluoro-5-[(1-hydroxy-2,3-dihydro-1H-inden-2-yl)carbamoyl]phenyl}imidazo[1,2-a]pyridine-3-carboxamide]: the IC50 is 433 nM.

For the compound `O=C(N[C@H]1CC[C@H](O)CC1)c1cccc(NC(=O)c2cnc3ccccn23)c1` [F76, N-{3-[(4-hydroxycyclohexyl)carbamoyl]phenyl}imidazo[1,2-a]pyridine-3-carboxamide], the IC50 is 9420 nM.

As to `O=C(N[C@@H]1CCCC[C@@H]1O)c1ccc(F)c(NC(=O)c2cnc3ccccn23)c1` [F82, N-(2-fluoro-5-{[(1R,2S)-2-hydroxycyclohexyl]carbamoyl}phenyl)imidazo[1,2-a]pyridine-3-carboxamide], the IC50 worked out at 304 nM.

Turning to `C[C@@H]1CC[C@H](O)[C@H](C)N1CCNC(=O)c1ccc(F)c(NC(=O)c2cnc3cc(-c4ccnn4C)ccn23)c1` [F109, N-[2-fluoro-5-({2-[(2S,3S,6R)-3-hydroxy-2,6-dimethylpiperidin-1-yl]ethyl}carbamoyl)phenyl]-7-(1-methyl-1H-pyrazol-5-yl)imidazo[1,2-a]pyridine-3-carboxamide], the IC50 came out at 295 nM.

Values taken from US20140206682A1, “COMPOUNDS AND COMPOSITIONS AS PDGFR KINASE INHIBITORS” (NOVARTIS PHARMACEUTICALS UK LIMITED, priority 2011, published 2014).
